Data from paper PMC9939733 (The Journal of Biological Chemistry, 2023).
Changes are numbered by the printed parent chain. Several values for one entry are separate records, joined by “and”; a condition that tells them apart may be missing. Equal values may be shown once.

Assays:
R140Q IDH2 = target: T1, R140Q IDH2 (Homo sapiens, UniProt P48735, R140Q); test: Steady-state kinetics, absorbance assay; type: biochemical; details: 0.03 μM enzyme, 50 μM NADPH, 20 mM MgCl2, pH 8.0
T1 construct: made in house; host or cells: Sf21 insect cells (cell pellets prepared at Evotec)
T1 sequence (P48735 40-452 R140Q): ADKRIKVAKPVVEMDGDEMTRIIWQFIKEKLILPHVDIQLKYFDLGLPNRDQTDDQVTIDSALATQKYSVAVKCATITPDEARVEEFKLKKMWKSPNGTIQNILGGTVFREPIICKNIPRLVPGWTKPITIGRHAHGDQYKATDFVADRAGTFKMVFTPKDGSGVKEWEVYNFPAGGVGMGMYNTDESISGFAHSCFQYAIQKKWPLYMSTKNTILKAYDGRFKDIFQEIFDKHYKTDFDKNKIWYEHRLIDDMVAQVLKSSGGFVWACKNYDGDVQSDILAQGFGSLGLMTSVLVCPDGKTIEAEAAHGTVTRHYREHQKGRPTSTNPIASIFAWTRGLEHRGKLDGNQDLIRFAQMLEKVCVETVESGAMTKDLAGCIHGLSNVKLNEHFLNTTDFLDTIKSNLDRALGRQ
Experimental: (§1) Compounds were dispensed using a CyBio SDW-CW CyBi-Well Simultaneous Pipettor and assay started using a ThermoFisher Multidrop Combi reagent dispenser.
(§2) Reactions were performed as technical duplicates, and all assays were carried out in two independent duplicates.

R172K IDH2 = target: T2, R172K IDH2 (Homo sapiens, UniProt P48735, R172K); test: Steady-state kinetics, absorbance assay; type: biochemical; details: 0.03 μM enzyme, 50 μM NADPH, 20 mM MgCl2, pH 8.0
T2 construct: made in house; host or cells: Sf21 insect cells (cell pellets prepared at Evotec)
T2 sequence (P48735 40-452 R172K): T1 sequence (P48735 40-452 R140Q) with Q101R, R133K
Experimental: as §1, §2

R132H IDH1 [1] = target: T3, R132H IDH1 (Homo sapiens, UniProt O75874, R132H); test: Absorbance assay, variant activity in the presence of equimolar 2OG (inhibition screen); type: biochemical; design: made in house; host or cells: Escherichia coli BL21(DE3) pLyS; details: […] 2OG and […] test compound, 0.03 μM R132H IDH1, 50 μM NADPH
Method in brief: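 Values come from four technical replicates per reaction; compound transfer used a simultaneous pipettor and reagent dispensing triggered the start.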

R132H IDH1 [2] = target: T3, R132H IDH1; test: CPMG 1H NMR binding study; design: made in house; host or cells: Escherichia coli BL21(DE3) pLyS; details: 50 µM ligand, R132H IDH1 titrated, 10 mM CaCl2, pH 7.5
Experimental: Binding studies were performed at 298K in buffer (50 mM Tris-d11, pH 7.5, 10%v/v D2O, 10 mM CaCl2) using CPMG NMR spectroscopy ([56]) and a water suppression pulse sequence.
similar manner as does 2OG. 1H NMR (CPMG-edited (2), 700 MHz) binding studies of R132H IDH1 with (a)
2OG/2OG derivative. […] Red spectra: 50 µM
Assays were performed as described in the Experimental
Procedures Section by titrating a concentrated R132H IDH1 stock solution (1.4 mM) into a mixture containing
(1 picture or pasted object on this page, not shown here)

T3 sequence (O75874 whole entry R132H): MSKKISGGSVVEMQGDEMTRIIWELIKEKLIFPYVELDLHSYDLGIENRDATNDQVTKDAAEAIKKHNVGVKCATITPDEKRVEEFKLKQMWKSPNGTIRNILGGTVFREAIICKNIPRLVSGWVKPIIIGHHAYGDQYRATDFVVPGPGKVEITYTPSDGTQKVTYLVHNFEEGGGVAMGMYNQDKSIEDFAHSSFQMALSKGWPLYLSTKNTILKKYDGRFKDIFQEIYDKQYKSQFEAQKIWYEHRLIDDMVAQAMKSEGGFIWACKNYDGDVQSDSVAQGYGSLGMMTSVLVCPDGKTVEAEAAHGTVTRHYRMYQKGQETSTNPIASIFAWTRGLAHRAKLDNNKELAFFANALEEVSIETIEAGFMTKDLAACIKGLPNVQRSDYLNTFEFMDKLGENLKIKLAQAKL

**Q.** With `O=C(O)CCC(=O)C(=O)O` [2OG, 2-oxoglutarate, reference compound] as the compound, how does the Kmapp (R140Q IDH2) read?
**A.** 5.1 ± 1.2 mM and ~5.1 mM

**Q.** And the kcatapp (R140Q IDH2)?
**A.** 0.49 ± 0.04 s⁻¹ and 0.5 to 0.7 s⁻¹

**Q.** What about the Kmapp (R172K IDH2) of the same compound?
**A.** 0.35 ± 0.04 mM

**Q.** What about the kcatapp (R172K IDH2) of the same compound?
**A.** 0.72 ± 0.04 s⁻¹ and 0.5 to 0.7 s⁻¹

**Q.** What about the “activity [%] (%-substrate conversion after 20 min incubation)” value (R132H IDH1 [1]) of the same compound?
**A.** 100%

**Q.** And the “signal depletion (CPMG 1H NMR)” value (R132H IDH1 [2])?
**A.** ~80%
